Values quoted from earlier work, collected in PMC4183665 (2014).
“Also recorded” adds a separate entry of the source.

Columns and labels:
[1] = test system: dipeptidyl peptidase-4 (DPP-4)
[2] = test system: neprilysin (NEP 24.11)

- cleaved bond [1]: cleaves after Ala8
Substance: H-HAEGTFTSDVSSYLEGQAAKEFIAWLVKGRG-NH2
- cleaved bond [2]: cleaves after Ser18; also recorded: cleaves after Tyr19; also recorded: cleaves after Glu27; also recorded: cleaves after Phe28
